Assay results: article PMC3039689, “Identification of Small Molecule Lead Compounds for Visceral Leishmaniasis Using a Novel Ex Vivo Splenic Explant Model System” (PLoS Neglected Tropical Diseases, 2011)
Counter-ions that a name gives are not always drawn. Like-named read-outs stand apart in the source and are kept apart here.

Key:
[1] = test system: luciferase-transfected Leishmania donovani; test: Anti-leishmanial efficacy (EC50) in the ex vivo splenic explant model; assay type: cell-based
Protocol: To establish the plate assay for drug screening, the spleens from 2 infected hamsters were aseptically removed and placed in a Petri dish containing 5 mL of Collagenase D (Roche) at 2 mg/mL of buffer (10 mM Hepes pH 7.4, 150 mM NaCl, 5 mM KCl, 1 mM MgCl2, 1.8 mM CaCl2). The spleen was infiltrated by injection with approximately 2 mL of Collagenase solution, the tissue was cut into small pieces using sharp scissors, and incubated for 20 minutes at 37°C. The cell suspension and remaining tissue fragments were gently passed through a 100 µm cell strainer (B–D) to obtain a single cell suspension, which was washed twice by centrifugation (500 g for 7 min at 4°C) and re-suspended in culture medium composed of DMEM (Gibco), 5% FBS, 1 mM Sodium pyruvate (Gibco), 1X MEM amino acids solution (Sigma), 0.02% v/v/EDTA, 10 mM HEPES buffer (Cellgro) and 100 IU/mL Penicillin/100 […] Streptomycin solution (Cellgro).
The anti-leishmanial efficacy of the compounds was determined using the splenic explant model in a 96-well plate format. […] Because variation in the parasite burden between different explant cultures was expected, the concentration of cells used in each experiment was adjusted to give approximately 100 counts by luminometry (equivalent to ∼240,000 parasites). The number of surviving parasites was determined by luminometry as described above.

[2] = Cell toxicity (CC50) in the HepG2 cell line, CellTiter-Glo; assay type: cell-based, human; details: human
Protocol: After 24 hours of culture at 37°C the number of viable cells was determined by quantification of the ATP present in the cell using the CellTiter-Glo luminescent Cell Viability Assay (Promega).

[3] = Leishmania donovani, 48 h, ex vivo splenic explant, 48 h, luminometry, at least two experiments, compound from screened library, read-out: Ex vivo model EC50 Mean
[4] = HepG2 cells, HepG2 cell line, 24 h, ATP luminescence, compound from screened library, read-out: HepG2 CC50 Mean
[5] = Leishmania donovani, ex vivo splenic explant, 48 h, luminometry, at least two experiments, compound from screened library, read-out: Ex vivo model EC50 Mean
[6] = HepG2 cell line, 24 h, ATP luminescence, compound from screened library, read-out: HepG2 CC50 Mean
[7] = Leishmania donovani, 50% reduction in parasite counts in the ex vivo model, read-out: EC50 Mean (Table S2)
[8] = 50% reduction in parasite counts in the ex vivo model, read-out: EC50 Mean (Table S2)

Row | Compound | EC50 [1, 3] [µM] | CC50 at 24 h [2, 4] [µM] | EC50 [1, 5] [µM] | also measured
1 | CC(C)(C)NCCC(O)c1cc(C(F)(F)F)nc2c(C(F)(F)F)cccc12 (stereo not shown) [1-(2,8-bis(trifluoromethyl)-4-quinolinyl)-3-(tert-butylamino)-1-propanol] | 7.9 | 44.2 |  | 
2 | CCN(CC)CCN1C(=O)c2cccc3cc(N)cc(c23)C1=O [1H-Benz[de]isoquinoline-1,3(2H)-dione, 5-amino-2-[2-(diethylamino)ethyl]-] |  |  | 8.4 | CC50 [2, 6]: 69.3 µM
3 | COc1cc(O)c(C(=O)/C=C/c2ccc(O)c(OC)c2)c(OC)c1 [2',4-dihydroxy-3,4',6'-trimethoxychalcone] | 14.6 | 106 |  | 
4 | CN(C)CCCNc1cc(O)c2c(c1O)C(=O)c1ccccc1C2=O [2-((3-(dimethylamino)propyl)amino)-1,4-dihydroxyanthra-9,10-quinone] |  |  | 6.7 | CC50 [2, 6]: 75.1 µM
5 | CSc1ccc2c(c1)c(CCN)c(C)n2Cc1ccccc1Cl [2-[1-[(2-chlorophenyl)methyl]-2-methyl-5-methylsulfanyl-indol-3-yl]ethanamine] |  |  | 9.4 | CC50 [2, 6]: 71.8 µM
6 | CN(C)CCCN1CCC2(CCC(C(C)(C)C)CC2)CC1 [3-(9-tert-butyl-3-azaspiro[5.5]undec-3-yl)-N,N-dimethyl-1-propanamine] | 6.1 | 61.8 |  | 
7 | CN(C)CCCN1c2ccccc2Sc2ccc3ccccc3c21 [3-(12H-benzo[a]phenothiazin-12-yl)-N,N-dimethyl-1-propanamine] |  |  | 11.5 | CC50 [2, 6]: 66.6 µM
8 | CCC1=C(CC2NCCc3ccccc32)CC2c3cc(OC)c(OC)cc3CCN2C1 (stereo not shown) [3-ethyl-9,10-dimethoxy-2-(1,2,3,4-tetrahydro-isoquinolin-1-ylmethyl)-1,6,7,11b-tetrahydro-4H-pyrido(2,1-a)isoquinoline] |  |  | 2.7 | CC50 [2, 6]: 24 µM
9 | Cc1cc(N2CCCCC2)nc2ccc(Cc3ccc4nc(N5CCCCC5)cc(C)c4c3)cc12 [4-methyl-6-((4-methyl-2-(1-piperidinyl)-6-quinolinyl)methyl)-2-(1-piperidinyl)quinoline] |  |  | 18.4 | CC50 at 24 h [2]: 109 µM
10 | OC1(c2ccccc2)c2ccccc2NC2=NCCN21 (stereo not shown) [5-phenyl-3,10-dihydro-2H-imidazo[2,1-b]quinazolin-5-ol] | 12 | 107 |  | 
11 | COc1ccc(-c2cc(=O)c3cc(OC)ccc3o2)cc1 [6,4'-dimethoxyflavone] | 17.9 | 95 |  | 
12 | COc1cc(NCCC2CCCCN2)c2ncccc2c1 (stereo not shown) [6-methoxy-N-(2-(2-piperidinyl)ethyl)-8-quinolinamine] |  |  | 5.1 | CC50 at 24 h [2]: 108 µM
13 | CN(C)CCCN1c2ccc(O)cc2Sc2ccc(Cl)cc21 [7-Hydroxychlorpromazine] |  |  | 11 | CC50 [2, 6]: 60.1 µM
14 | Clc1ccc2c(NC3CCC(N4CCCCC4)CC3)ccnc2c1 (stereo not shown) [7-chloro-N-(4-(1-piperidinyl)cyclohexyl)-4-quinolinamine] | 6.3 | 67.4 |  | 
15 | CN(C)CC1CCC2=C(C1=O)C(c1ccc(Cl)c(Cl)c1)C1=C(CCC(CN(C)C)C1=O)O2 (stereo not shown) [9-(3,4-Dichlorophenyl)-2,7-bis(dimethylaminomethyl)-3,4,5,6,7,9-hexahydro-2H-xanthene-1,8-dione] | 9.4 | 49.8 |  | 
16 | CC(NCCN(C)C)C1CC[C@H]2[C@@H]3CCc4cc(O)ccc4[C@H]3CC[C@]12C (stereo partly shown) [17-(1-((2-(dimethylamino)ethyl)amino)ethyl)estra-1,3,5(10)-trien-3-ol] | 6.2 |  |  | CC50 at 24 h [2]: 51.6 µM
17 | C[C@]12CC[C@H]3[C@@H](CC=C4C[C@@H](O)CC[C@@]43C)[C@@H]1CC[C@@H]2N(CCO)CCO [17beta-[Bis(2-hydroxyethyl)amino]androst-5-en-3beta-ol] | 7.5 | 88.5 |  | 
18 | CC[C@@]1(O)C[C@H](O[C@H]2C[C@H](N(C)C)[C@H](O)[C@H](C)O2)c2c(cc3c(c2O)C(=O)c2c(O)cccc2C3=O)[C@H]1C(=O)OC [Aklavine Hydrochloride] |  |  | 0.7 | CC50 [2, 6]: 14 µM
19 | COc1ccc2cc1Oc1ccc(cc1)C[C@H]1c3c(cc4c(c3Oc3cc5c(cc3OC)CCN(C)[C@@H]5C2)OCO4)CCN1C [Cepharanthine] | 11.4 |  |  | CC50 at 24 h [2]: 86.3 µM
20 | CCCCCCCCCCCCCCCC[N+](C)(C)C [Cetrimonium Bromide] |  |  | 6.1 | CC50 [2, 6]: 42.9 µM
21 | [H]/N=C(\N/C(=N/[H])NCCCCCCNC(=N)NC(=N)Nc1ccc(Cl)cc1)Nc1ccc(Cl)cc1 [Chlorhexidine] |  | 60.5 | 10.3 | 

Row | Compound | EC50 [1, 3] [µM] | CC50 at 24 h [2, 4] [µM] | EC50 [1, 5] [µM] | also measured
22 | Cc1cc(O)ccc1Cl [Chlorocresol] |  | 138 | 8 | EC50 [1, 7]: 8.02 µM
23 | CN(C)CCCN1c2ccccc2Sc2ccc(Cl)cc21 [Chlorpromazine] |  |  |  | EC50 [1, 7]: 15.1 µM; CC50 at 24 h [2]: 96.1 µM
24 | Oc1c(I)cc(Cl)c2cccnc12 [Clioquinol] |  | 60 | 11.3 | 
25 | Oc1ccc(Cl)c2cccnc12 [Cloxyquin] |  | 94.8 |  | 
26 | C=C1C(=O)O[C@H]2C[C@@H]1C(OC(C)=O)C/C(C)=C/CC/C(C)=C/CC[C@@]2(C)O (stereo partly shown) [Crassin Acetate] | 7.7 | 41.1 |  | 
27 | C=C1C(=O)O[C@H]2C[C@@H]1[C@@H](OC(C)=O)C/C(C)=C/CC/C(C)=C\CC[C@@]2(C)O [Crassin] | 8.9 | 51.6 |  | 
28 | C[C@@H]1CC[C@@]2(OC1)O[C@H]1[C@@H](O)[C@H]3[C@@H]4CC[C@H]5C[C@@H](O[C@@H]6O[C@H](CO)[C@H](O[C@@H]7O[C@H](CO)[C@@H](O)[C@H](O[C@@H]8OC[C@@H](O)[C@H](O)[C@H]8O)[C@H]7O[C@@H]7O[C@H](CO)[C@H](O)[C@H](O[C@@H]8O[C@H](CO)[C@@H](O)[C@H](O)[C@H]8O)[C@H]7O)[C@H](O)[C@H]6O)[C@H](O)C[C@]5(C)[C@H]4CC[C@]3(C)[C@H]1[C@@H]2C [Digitonin] | 8.2 |  |  | CC50 [2, 6]: 42.4 µM
29 | Cc1c2ccncc2c(C)c2c1[nH]c1ccccc12 [Ellipticine] | 2.4 |  |  | CC50 [2]: 30.7 µM
30 | Cc1nccc2c1[nH]c1cc(O)ccc12 [Harmol Hydrochloride] |  |  | 11.2 | CC50 [2, 6]: 60.2 µM
31 | Oc1c(Cl)cc(Cl)c(Cl)c1Cc1c(O)c(Cl)cc(Cl)c1Cl [Hexachlorophene] |  |  |  | EC50 ([1]; Leishmania donovani, 48 h, read-out: Ex vivo model EC50 Mean): 13.6 µM
32 | CC[n+]1c(-c2ccccc2)c2cc(N)ccc2c2ccc(N)cc21 [Homidium Bromide] |  |  | 11.9 | EC50 [1, 7]: 11.9 µM; CC50 [2, 6]: 58.8 µM
33 | CNCCCC12CCC(c3ccccc31)c1ccccc12 [Maprotiline Hydrochloride] |  |  |  | CC50 at 24 h [2]: 57.9 µM
34 | Clc1ccc2c(NCCNC3CCCCC3)ccnc2c1 [N1-(7-chloro-4-quinolinyl)-N2-cyclohexyl-1,2-ethanediamine] | 3.9 | 46.2 |  | 
35 | CC(C)=CCNc1ncnc2nc[nH]c12 [N6-Isopentenyladenine] |  |  | 20 | CC50 [2]: 225 µM
36 | CN(C)CCCNc1c2c(nc3ccc(Cl)cc13)CCCC2 [N-(7-chloro-1,2,3,4-tetrahydroacridin-9-yl)-N',N'-dimethyl-propane-1,3-diamine] |  |  | 6.4 | CC50 [2, 6]: 58.8 µM
37 | COc1cc2ccccc2c2cc([N+](=O)[O-])oc12 [Naphtho(2,1-b)furan, 4-methoxy-2-nitro-] | 6.8 |  |  | CC50 at 24 h [2]: 64.3 µM
38 | CC[C@@H](C(=O)O)[C@@H]1O[C@@H]([C@@H](C)[C@H](O)[C@H](C)C(=O)[C@H](CC)[C@H]2O[C@]3(C=C[C@@H](O)[C@]4(CC[C@@](C)([C@H]5CC[C@](O)(CC)[C@H](C)O5)O4)O3)[C@H](C)C[C@@H]2C)[C@@H](C)C[C@@H]1C [Narasin] | 13.3 |  |  | EC50 [1, 7]: 13.3 µM; CC50 at 24 h [2]: 73 µM
39 | CN[C@H]1CC[C@@H](c2ccc(Cl)c(Cl)c2)c2ccccc21 [Sertraline Hydrochloride] |  |  |  | CC50 at 24 h [2]: 82.5 µM
40 | C[C@@H]1[C@H](O)[C@@H](C)/C=C/C=C/C=C/C=C/C=C/C=C/C=C/[C@H](O[C@@H]2O[C@H](C)[C@@H](O)[C@H](N)[C@@H]2O)C[C@@H]2O[C@](O)(C[C@@H](O)C[C@@H](O)[C@H](O)CC[C@@H](O)C[C@@H](O)CC(=O)O[C@H]1C)C[C@H](O)[C@H]2C(=O)O [amphotericin B deoxycholate] |  |  |  | EC50 ([1]; Leishmania donovani, ex vivo model, freshly solubilized compound from commercial source, read-out: EC50): 0.24 ± 0.02 µM
41 | Monensin Sodium |  |  |  | EC50 [1, 8]: 2.44 µM; EC50 ([1]; ex vivo splenic explant, 48 h, luminometry, at least two experiments, compound from screened library, read-out: Ex vivo model EC50 Mean): 2.4 µM
42 | Neomycin sulfate |  |  |  | EC50 [1, 8]: 6.72 µM; Activity in the ex vivo system (screen or EC50 determination) ([1]; transgenic L. donovani, ex vivo system): identified as a compound with activity
